Laboratory results reported in PMC12344719 (Journal of Chemical Information and Modeling, 2025).
Like-named read-outs stand apart in the source and are kept apart here.

Columns and labels:
Vero cells [1] = tested on: Vero cells; set-up: method as in Yang et al.; settings: 72 h condition without hypoxia, ref Yang et al.; cited from earlier work
[2] = set-up: method as in Liu et al.; settings: ref Liu et al.; cited from earlier work
[3] = toxicological studies in animals; cited from earlier work
Vero cells [4] = settings: African green monkey (Cercopithecus aethiops)
in vitro = settings: African green monkey (Cercopithecus aethiops)
SARS-CoV-2 Mpro = settings: cited from earlier work
SARS-CoV-2 [5] = format: cell-based
SARS-CoV-2 [6] = experiment: microbe, parasite or virus in culture; format: cell-based

Structure (SMILES): CCN(CCO)CCCC(C)Nc1ccnc2cc(Cl)ccc12 (stereo not shown) [hydroxychloroquine]
- CC50 (Vero cells [1]): 56.2 µM
- CC50 [2]: 250 µM
- less toxic than chloroquine [3]: approximately 40%

Structure (SMILES): CC(=O)c1[nH]c(C)c(C(=O)N(C)CCCOc2cccc(Cl)c2)c1C [MolPort-046-186-743]
- CC20 (Vero cells [4]; 72 h): 7.583 µM
- CC50 at 72 h (in vitro): 27.6 µM

Structure (SMILES): COc1ccccc1OCCCOc1ccc([N+](=O)[O-])cc1Cl [MolPort-002-201-288]
- CC20 (Vero cells [4]): 3.031 µM
- CC50 (in vitro): 20.6 µM

Structure (SMILES): CN(CCCCCc1cc(-c2cccc(F)c2)n[nH]1)C(=O)C(C)(C)C [MolPort-009-093-282]
- CC20 (Vero cells [4]): 9.418 µM
- CC50 (in vitro): 47.1 µM

Structure (SMILES): CCN(CC)CCCC(C)Nc1ccnc2cc(Cl)ccc12 (stereo not shown) [chloroquine]
- CC50 (Vero cells [1]): 92.4 µM
- CC50 [2]: 273 µM

Structure (SMILES): O=C[C@H](C[C@@H]1CCNC1=O)NC(=O)[C@H](Cc1cccc(F)c1)NC(=O)c1cc2ccccc2[nH]1 [11b]
- IC50 (SARS-CoV-2 Mpro): 0.04 µM

Structure (SMILES): Cc1cccc(C)c1NC(=O)CCCSCc1cccc(S(=O)(=O)N(C)C)c1 [MolPort-005-766-143]
- CC20 (Vero cells [4]; 72 h): 3.532 µM
- CC50 at 72 h (in vitro): 15.7 µM

Structure (SMILES): CCOc1ccc2nc(C(=O)CCC(=O)OC(CCl)CCl)sc2c1 [MolPort-004-953-083]
- CC20 (Vero cells [4]; 72 h): 29.30 µM
- CC50 at 72 h (in vitro): 45.5 µM

Structure (SMILES): C=CCNC(=O)c1csc(-c2ccc(OCCC)cc2F)n1 [MolPort-006-606-981]
- CC20 (Vero cells [4]): 3.964 µM
- CC50 (in vitro): 19.4 µM

Structure (SMILES): CCS(=O)(=O)N(C)c1ccc2sc(C(=O)NCCC3=CCCCC3)cc2c1 [MolPort-010-778-422]
- log reduction (viral titer) (SARS-CoV-2 [5]): 5.6 log
- SI (selectivity index) (SARS-CoV-2 [6]): 569.9
- IC50 (SARS-CoV-2 [6]; Severe acute respiratory syndrome coronavirus 2, Vero, 2 h): 0.0089 µM
- CC20 (Vero cells [4]; 72 h): 2.258 µM
- CC50 at 72 h (in vitro): 5.07 µM

Structure (SMILES): COc1cccc(SCC(=O)N(Cc2ccccn2)C2CCCCC2)c1 [MolPort-045-920-671]
- CC20 (Vero cells [4]; 72 h): 2.772 µM
- CC50 at 72 h (in vitro): 16.1 µM
